Source: patent publication US20040229791A1, “Compositions and methods of modulating TGF-beta activity by fatty acids” (priority 2002, published 2004)

Molecular target: T1, TGF-β1-α2M* complex (Homo sapiens, UniProt P01023)
T1 construct: was purified from pooled citrate-treate human plasma; from tissue; host or cells: pooled citrate-treated human plasma
T1 sequence (P01023 24-1474): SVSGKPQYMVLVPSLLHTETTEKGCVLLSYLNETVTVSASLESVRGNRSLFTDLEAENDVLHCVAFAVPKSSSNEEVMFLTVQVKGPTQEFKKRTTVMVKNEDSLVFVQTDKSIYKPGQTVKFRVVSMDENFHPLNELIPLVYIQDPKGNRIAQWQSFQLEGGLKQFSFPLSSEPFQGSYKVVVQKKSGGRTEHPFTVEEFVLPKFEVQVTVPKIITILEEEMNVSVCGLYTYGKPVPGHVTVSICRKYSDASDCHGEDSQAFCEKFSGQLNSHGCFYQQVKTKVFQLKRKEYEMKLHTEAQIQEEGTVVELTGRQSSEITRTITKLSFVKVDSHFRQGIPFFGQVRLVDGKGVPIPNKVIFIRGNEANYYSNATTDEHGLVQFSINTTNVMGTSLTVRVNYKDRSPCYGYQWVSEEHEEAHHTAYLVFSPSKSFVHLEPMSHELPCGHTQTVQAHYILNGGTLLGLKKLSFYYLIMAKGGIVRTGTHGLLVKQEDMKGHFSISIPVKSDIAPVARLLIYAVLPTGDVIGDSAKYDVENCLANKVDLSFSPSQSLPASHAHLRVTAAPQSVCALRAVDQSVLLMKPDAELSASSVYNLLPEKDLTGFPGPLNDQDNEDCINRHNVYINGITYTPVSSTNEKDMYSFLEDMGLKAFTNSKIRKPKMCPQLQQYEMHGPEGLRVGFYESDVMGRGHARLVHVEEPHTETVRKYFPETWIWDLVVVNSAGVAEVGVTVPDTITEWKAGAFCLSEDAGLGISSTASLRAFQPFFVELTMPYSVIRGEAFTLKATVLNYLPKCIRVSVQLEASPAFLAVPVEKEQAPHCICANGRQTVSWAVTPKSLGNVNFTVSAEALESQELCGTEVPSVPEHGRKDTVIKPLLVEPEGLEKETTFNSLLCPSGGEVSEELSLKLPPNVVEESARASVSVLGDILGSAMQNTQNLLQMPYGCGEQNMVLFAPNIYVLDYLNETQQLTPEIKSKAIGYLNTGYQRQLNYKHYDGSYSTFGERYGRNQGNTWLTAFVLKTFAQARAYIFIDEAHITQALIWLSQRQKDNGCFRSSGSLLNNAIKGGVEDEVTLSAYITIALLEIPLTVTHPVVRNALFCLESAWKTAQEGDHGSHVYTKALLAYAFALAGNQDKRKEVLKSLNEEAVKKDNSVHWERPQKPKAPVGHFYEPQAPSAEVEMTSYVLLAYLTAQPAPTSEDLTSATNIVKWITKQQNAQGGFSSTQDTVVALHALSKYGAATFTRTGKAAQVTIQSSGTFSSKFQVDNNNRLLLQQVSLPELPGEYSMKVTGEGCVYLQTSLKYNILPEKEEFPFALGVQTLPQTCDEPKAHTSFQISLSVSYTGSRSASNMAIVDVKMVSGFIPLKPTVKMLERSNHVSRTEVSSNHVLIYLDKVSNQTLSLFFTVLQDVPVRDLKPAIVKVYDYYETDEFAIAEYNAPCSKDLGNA
Experiment: Inhibition of 125I-TGF-β1 and α2M* complex formation (5% non-denaturing PAGE, autoradiography)
Type: binding
Details: ~1 nM 125I-TGF-β1, 10 μg α2M* in 0.05 ml, 30 min room temperature, non-denaturing PAGE; read-out: IC50 for inhibiting complex formation between TGF-β1 and α2M*
Protocol: Saturated and unsaturated fatty acids are present in plasma and tissues (25,26). The effects of various concentrations of saturated fatty acids on the formation of complexes between ^125I-TGF ? β1 and ? 2M* were examined. ^125I-TGF- ? 1 (1 nM) was incubated μg/ml) in the presence of various concentrations of n-caprylic acid ([…]), lauric acid (12 carbon atoms), myristic acid (14 carbon atoms), palmitic acid (16 carbon atoms) and stearic acid (18 carbon atoms). After 30 min at room temperature, the reaction mixture was analyzed by 5% non-denaturing PAGE and autoradiography, a standard method form determining complex formation between TGF-β and α2M* (12). […] At 100 μM, it inhibited 20% of the complex formation between TGF ? β1 and α2M*. Esterification consistently abolished the inhibitory activities of the fatty acids.
Complex formation of ^125I-TGF-β and ? 2M*—The reaction mixture contained 10 μg of . α2M*, ˜1 nM of ^125I-TGF- ? 1, ^125I-TGF ? β2 or ^125I-TGF ? acids (dissolved in 100% ethanol) in 0.05 ml of 50 mM HEPES-NaOH buffer, pH 7.4. The final concentration of ethanol in the reaction mixture was 0.5%. These fatty acids and fatty acid derivatives were soluble under the experimental conditions. After 30 min at room temperature, the complex formation of ^125I-TGF- ? and. α2M* was determined by 5% non-denaturing polyacrylamide gel electrophoresis (PAGE) or by 7.5% SDS-PAGE following cross-linking by 0.6 mM DSS. After electrophoresis, the gel was stained with Coomassie blue and analyzed by autoradiography. The ^125I-TGF- ? - ? 2M* complex which co-migrated with free ? 2M* was quantified using a PhosphoImager (Fuji).

CCCCCC=CCC=CCC=CCC#CCCCC(=O)O [ETYA, 8, 11, 14 eicosatrien-5-ynoic acid]
IC50: 30 µM

CCCCCCCCCCCCCCCCCC(=O)O [stearic acid]
IC50: 6.6 ± 0.9 µM

CCCCCCCCCCCCCCCC(=O)O [palmitic acid]
IC50: 8.5 ± 1 µM
